Test results reported in patent publication US7902327B2, “Dendrimeric peptides, pharmaceutical compositions and methods of using the same” (New York University School of Medicine, priority 2007, dated 2011).
Converted amounts (≈) assume the structure as drawn. Where two headings read alike, the source gives them in different places. Where a SMILES comes first, the peptide text is derived from it. Side-chain parts run from the residue outwards. [ ]: non-standard residue; d: D form. The star is where a group is joined. Lys(α,ε-(ArgTrp)2) = N=C(N)NCCC[C@H](N)C(=O)N[C@@H](Cc1c[nH]c2ccccc12)C(=O)NCCCC[C@H](NC(=O)[C@H](Cc1c[nH]c2ccccc12)NC(=O)[C@@H](N)CCCNC(=N)N)C(=O)*; βAla = NCCC(=O)O

Legend:
fresh sheep erythrocytes = assay: hemolytic assay; assay type: cell-based; settings: sheep, 30 min, pH 7.2
Protocol: Hemolytic activity of model peptides was assessed on fresh sheep erythrocytes (Fitzgerald Inc., Concord, Mass.). […] The resulting supernatant was diluted by a factor of 40 in distilled water. The absorbances of the supernatant at λ=540 nm (OD540) were measured in the UV Spectrophotometer. […] Hemolytic index (HI) was defined as HI═HD50/IC50.

[1] = tested on: ampicillin- and streptomycin-resistant E. coli (D31)
[2] = tested on: multi-drug resistant strain S. aureus
[3] = tested on: ampicillin- and streptomycin-resistant E. coli (D31); assay: microbe, parasite or virus in culture; settings: Escherichia coli, read-out: MIC50 E. coli
[4] = tested on: multi-drug resistant strain S. aureus; assay: microbe, parasite or virus in culture; settings: Staphylococcus aureus, read-out: MIC50 S. aureus
B. Subtilis (ATCC 6633) [5] = assay: microbe, parasite or virus in culture; settings: Bacillus subtilis, ATCC6633, read-out: MIC50 B. subtilis
[6] = tested on: B. anthracis (32F2 Sterne); assay: microbe, parasite or virus in culture; settings: Bacillus anthracis, read-out: MIC50 B. anthracis
E. faecalis (29212) [7] = assay: microbe, parasite or virus in culture; settings: Enterococcus faecalis, read-out: MIC50 E. faecalis
[8] = assay type: cell-based, mouse
Protocol: The cells were grown in 96 well plates and a 100 μl aliquot of a three fold serial dilution of the peptides was dispensed into each well. Buffer alone was used as the positive control and H2O2 was used as the negative control. MTS […] was added to each well prior to incubation to visualize the cells. The cells were incubated for 24 hours and their absorbance were measured at λ=495 nm.

[9] = dye leakage assay (calcein); settings: POPG vesicles
Description: To confirm that the multivalent AMPs interact with and disrupt phospholipid bilayers, we measured the ability of dendrimer (RW)4D to induce leakage of calcein, entrapped within the interior of large unilamellar vesicles of model membrane POPG (1-Palmitoyl-2-Oleoyl-sn-Glycero-3-[Phospho-rac-(1-glycerol)]) with negatively charged head group. The leakage of vesicle contents to the AMPs was monitored by the release of calcein encapsulated in large unilamellar vesicles. The method of preparation of dye-encapsulated vesicles has been reported in detail (Torchilin and Weissig 2003). In short, large unilamellar POPG vesicles were prepared by reverse-phase evaporation. After evaporating the organic solvent, residue were hydrated with the calcein solution (100 mM) in buffer (10 mM Tris-HCl pH 7.4). The free calcein was removed by eluting through a Sephadex G-50 size-exclusion column in the same buffer. The leakage process was monitored by following the increase of calcein fluorescence intensity at 515 nm (excitation at 490 nm) after 20 μL of AMPs at different concentrations were added to 10 μL of vesicle solution mixed in 2 mL of TBS buffer. Complete leakage was achieved by addition of 100 uL of 20% Triton X-100 to the 2 ml solution, and the corresponding fluorescence intensity was used as 100% leakage for the calculation of leakage fraction.

[10] = tested on: multi-drug resistant MRSA gram-positive bacteria; assay: killing of multi-drug resistant bacteria, one hour contact; assay type: cell-based
[11] = tested on: E. coli(D31) gram-negative bacteria; assay: as above; assay type: cell-based
[12] = antibacterial activity under physiological conditions (90% human serum); assay type: cell-based
Protocol: In a further experiment, antibacterial activity under physiological conditions was tested. The MIC50 was determined in the presence of 90% human serum, respectively.

Acineto Baumannii = assay: killing and growth inhibition of Acineto Baumannii; assay type: cell-based
gram-positive MRSA = assay: LIVE/DEAD staining assay, membrane damage; assay type: cell-based; settings: 1 hr incubation; (RW)4D 10 uM
[13] = tested on: gram-negative A. baumannii; assay: LIVE/DEAD staining assay, membrane damage; assay type: cell-based; settings: 1 hr incubation; (RW)4D 10 uM
E. coli (RP437) biofilm = assay: biofilm formation in 96 well plates, crystal violet; assay type: cell-based; settings: 24 hours
Description: The effect of dendrimers of the invention on E. coli biofilm formation was further examined and measured. The development of a bacterial biofilm allows for the bacteria to become more antibiotic resistant. […] Assay summary: E. coli (RP437) was used to form biofilms in 96 well plates with and without different concentrations of peptides.

E. coli RP437 biofilm = assay: two-day biofilm on stainless steel coupons, Live/Dead staining; assay type: cell-based; settings: 25 μg/mL, 48 hours
Protocol: E. coli biofilm inhibition by (RW)4D was also studied on stainless steel coupons. Microscope images were taken after staining the two-day biofilms with Live/Dead staining solution. […] Assay summary: E. coli RP437 was used to form biofilms in a plastic dish with stainless steel coupons and different concentrations of peptides. After 48 hours incubation, coupon was soaked in NaCl buffer containing staining component in the dark for 15 mins.

B. Subtilis (ATCC 6633) [14] = settings: ATCC 6633
[15] = tested on: B. anthracis (32F2 Sterne)
E. faecalis (29212) [16] = settings: 29212
[17] = tested on: three other gram-positive bacteria; settings: three gram-positive bacteria
trypsin = trypsin at high concentration, various time intervals up to 24 hrs
[18] = tested on: Multidrug-resistant gram-positive S. aureus; settings: over 250 generations
[19] = tested on: gram-negative E. coli (D31); settings: over 250 generations
[20] = mean over no, low and high salt

For `CC(C)(O/N=C(\C(=O)N[C@@H]1C(=O)N2C(C(=O)[O-])=C(C[n+]3ccccc3)CS[C@H]12)c1csc(N)n1)C(=O)O` [Ceftazidime], which “HD50 (peptide concentration corresponding to 50% hemolysis)” value (fresh sheep erythrocytes) is on record?
The value was over 2000 µg/mL.

And the “MIC50 E. coli” value ([1]; 75 mM NaCl)?
The value was 44 µg/mL (≈ 80.5 µM).

And the “MIC50 E. coli” value ([1]; 150 mM NaCl)?
The value was 44 µg/mL (≈ 80.5 µM).

And the “MIC50 S. aureus” value ([2]; 75 mM NaCl)?
The value was 63 µg/mL (≈ 115 µM).

And the “MIC50 S. aureus” value ([2]; 150 mM NaCl)?
Its value is 63 µg/mL (≈ 115 µM).

What about the MIC50 [3] of the same compound?
The MIC50 was 44 µg/mL (≈ 80.5 µM).

What about the MIC50 [4] of the same compound?
Its MIC50 is 63 µg/mL (≈ 115 µM).

And the MIC50 (B. Subtilis (ATCC 6633) [5])?
The MIC50 was 6.2 µg/mL (≈ 11.3 µM).

And the MIC50 [6]?
Its MIC50 is 91 µg/mL (≈ 166 µM).

And the MIC50 (E. faecalis (29212) [7])?
Its MIC50 is 14 µg/mL (≈ 25.6 µM).

What does the source list for `N=C(N)NCCC[C@H](N)C(=O)N[C@@H](Cc1c[nH]c2ccccc12)C(=O)NCCCC[C@H](NC(=O)[C@H](Cc1c[nH]c2ccccc12)NC(=O)[C@@H](N)CCCNC(=N)N)C(=O)NCCCC[C@H](NC(=O)[C@H](CCCCNC(=O)[C@H](Cc1c[nH]c2ccccc12)NC(=O)[C@@H](N)CCCNC(=N)N)NC(=O)[C@H](Cc1c[nH]c2ccccc12)NC(=O)[C@@H](N)CCCNC(=N)N)C(=O)NCCC(N)=O` [Den(RW)4D] (H-RWK([Trp-Arg])K(Lys(α,ε-(ArgTrp)2))[βAla]-NH2)?
IC50 [8]: ~1380 µg/mL (≈ 750 µM); concentration at which peptide caused 50% dye leakage [9]: 0.5 µg/mL; decrease in bacteria remaining after contact [10]: 3 log; decrease in bacteria remaining after contact [11]: 3 log; antimicrobial activity in the presence of human serum [12]: human serum cannot completely block the antimicrobial activity; killing and growth inhibition (Acineto Baumannii): can kill the bacteria and inhibit its growth at very low concentration; membrane damage / killing by Live/Dead staining (gram-positive MRSA): show damaged membranes; membrane damage / killing by Live/Dead staining [13]: show damaged membranes; inhibition of biofilm formation (E. coli (RP437) biofilm): exhibited inhibition of E. coli biofilm formation; total biofilm formation on stainless steel coupons compared with blank control (E. coli RP437 biofilm): significantly reduced; increase in MIC50 value from no salt to high-salt condition [1]: 50%; MIC50 E. coli ([1]; 0 mM NaCl): 3.0 µg/mL (≈ 1.63 µM); MIC50 E. coli ([1]; 75 mM NaCl): 3.9 µg/mL (≈ 2.12 µM); MIC50 E. coli ([1]; 150 mM NaCl): 4.5 µg/mL (≈ 2.44 µM); mean MIC50 against E. coli [1, 20]: 3.8 µg/mL; MIC50 S. aureus ([2]; 0 mM NaCl): 10 µg/mL (≈ 5.43 µM); MIC50 S. aureus ([2]; 75 mM NaCl): 15 µg/mL (≈ 8.14 µM); MIC50 S. aureus ([2]; 150 mM NaCl): 16 µg/mL (≈ 8.69 µM); mean MIC50 against S. aureus [2, 20]: 13.6 µg/mL; MIC50 B. subtilis (B. Subtilis (ATCC 6633) [14]): 3.5 µg/mL (≈ 1.9 µM); MIC50 B. anthracis [15]: 13 µg/mL (≈ 7.06 µM); MIC50 E. faecalis (E. faecalis (29212) [16]): 5.5 µg/mL (≈ 2.99 µM); mean MIC50 against all test organisms [17]: 7.4 µg/mL; inactivation of antibacterial activity by trypsin (trypsin): resistant to inactivation by trypsin; development of resistance (MIC90) [18]: did not show resistance; development of resistance (MIC90) [19]: did not show resistance
